# In patent publication US7932262B2 (Novartis AG, priority 2006, dated 2011):
# System: PC-3 cells
# Assay: Cell Proliferation Assay (Cell Titer Glo), PC-3 cell line
# Assay type: cell-based
# Conditions: Homo sapiens, PC-3, PC3 cells; read-out: CPEC50 PC3
# Experimental: IV. Cell Proliferation Assay Protocol:
# A2780, PC-3, or PC3MM cells were seeded at 1000 cells/well in 100 μL/well (10.000 cells/mL) growth media in 96-well plates. Cells were allowed to adhere to the bottom of plates for 3-5 hours in a 37° C. 5% CO2 incubator. Compounds were dissolved in DMSO and then transferred to the cell plates. The cells were incubated with the compounds for 3 days in a 37° C. 5% CO2 incubator. The growth medium containing the compounds was then removed from the cells and fresh medium was added, followed by 100 μL of Cell Titer Glo assay reagent (Promega). This mixture was shaken for 1 minute and then incubated without shaking for 10 minutes. Activity determinations for the compounds were made by detection on a Trilux Instrument.
# V. Cell Proliferation Assay Protocol: PC-3 Cell Line
# PC-3 cells were seeded at 1000 cells/well in 100 μL/well (10.000 cells/mL) along with growth media into black-walled, clear bottom 96-well plates. The cells were allowed to adhere to the bottom of the plate for 3-5 hours in a 37° C. 5% CO2 incubator.
# Test compounds were diluted to 500× in DMSO. The DMSO solutions of six of the compounds were transferred to the cells in the 96 well round bottom plate, column 2, row B-F. A 1:3 serial dilution of each compound was carried out. The serial dilution comprised adding 20 μL of DMSO to the wells containing the compounds and doing a 1:3 dilution across the plate from columns 2-10. Column 11 contained only DMSO. The serial dilution was carried out using a BioMek 2000 protocol “CP Serial Dilution using 250 μL tips” or “Proliferation Compound” (if using 20 μL tips).
# To a 96 deep well block, columns 2-11 rows B-F, was transferred 500 μL of growth medium. Using the FX protocol “HH_CellAssay—2 μL to 500 μL”, 2 μL of compound from each cell of the compound plate was transferred to the corresponding cell in the 96 deep well block containing 500 μL of growth medium. The instrument was programmed to dilute the compound in growth medium and then transfer 100 μL of that mixture to cell plates containing cells. The cell plates, to which test compounds had been added, were incubated for 3 days at 37° C. Following the incubation, the medium was removed and replaced with fresh medium. Cell Titer Glo (100 μL) was added to each well and the plate was shaken for 1 minute and then incubated without shaking for 10 minutes. The plates were then read using a Trilux instrument.
row,EC50,Structure (SMILES)
1,5 to 10 µM,"CC(C)N1CCC(Oc2cccc3cnc(Nc4cccc(CC(N)=O)c4)nc23)CC1 [Compound 1002, 2-(3-(8-(1-isopropylpiperidin-4-yloxy)quinazolin-2-ylamino)phenyl)acetamide]"
2,< 5 µM,"CNC(=O)Cc1cccc(Nc2ncc3cccc(OC4CCN(C(C)C)CC4)c3n2)c1 [Compound 1003, 2-(3-(8-(1-isopropylpiperidin-4-yloxy)quinazolin-2-ylamino)phenyl)-N-methylacetamide]"
3,< 5 µM,"CNC(=O)Cc1cccc(NC(=O)Cc2cccc(Nc3ncc4cccc(OC5CCN(C(C)C)CC5)c4n3)c2)c1 [Compound 1004, 2-(3-(8-(1-isopropylpiperidin-4-yloxy)quinazolin-2-ylamino)phenyl)-N-(3-(2-(methylamino)-2-oxoethyl)phenyl)acetamide]"
4,< 5 µM,"CC(C)NC(=O)Cc1cccc(Nc2ncc3cccc(OC4CCN(C(C)C)CC4)c3n2)c1 [Compound 1005, N-isopropyl-2-(3-(8-(1-isopropylpiperidin-4-yloxy)quinazolin-2-ylamino)phenyl)acetamide]"
5,5 to 10 µM,"CC(C)N1CCC(Oc2cccc3cnc(Nc4cccc(N5CCOCC5)c4)nc23)CC1 [Compound 1006, 8-(1-isopropylpiperidin-4-yloxy)-N-(3-morpholinophenyl)quinazolin-2-amine]"

# Continued, molecule first:
row,Structure (SMILES),EC50
1,"CCN1CCC(Oc2ccc3cnc(Nc4cc(OC)cc(OC)c4)nc3c2)CC1 [Compound 958, N-(3,5-dimethoxyphenyl)-7-(1-ethylpiperidin-4-yloxy)quinazolin-2-amine]",< 5 µM
2,"CC(C)N1CCC(Oc2ccc3cnc(Nc4ccc(Cl)cc4)nc3c2)CC1 [Compound 959, N-(4-chlorophenyl)-7-(1-isopropylpiperidin-4-yloxy)quinazolin-2-amine]",< 5 µM
3,"CC(C)NS(=O)(=O)c1ccc(Nc2ncc3ccc(OC4CCN(C(C)C)CC4)cc3n2)cc1 [Compound 961, N-isopropyl-4-(7-(1-isopropylpiperidin-4-yloxy)quinazolin-2-ylamino)benzenesulfonamide]",< 5 µM
4,"CNC(=O)Cc1ccc(Nc2ncc3cccc(OC4CCN(C(C)C)CC4)c3n2)cc1 [Compound 966, 2-(4-(8-(1-isopropylpiperidin-4-yloxy)quinazolin-2-ylamino)phenyl)-N-methylacetamide]",< 5 µM
5,"CC(C)NC(=O)Cc1ccc(Nc2ncc3cccc(OC4CCN(C(C)C)CC4)c3n2)cc1 [Compound 967, N-isopropyl-2-(4-(8-(1-isopropylpiperidin-4-yloxy)quinazolin-2-ylamino)phenyl)acetamide]",< 5 µM
6,"CC(C)N1CCC(Oc2cccc3cnc(Nc4ccc(N5CCOCC5)cc4)nc23)CC1 [Compound 968, 8-(1-isopropylpiperidin-4-yloxy)-N-(4-morpholinophenyl)quinazolin-2-amine]",< 5 µM
7,CC(=O)Nc1ccc(Nc2ncc3cccc(OC4CCN(C(C)C)CC4)c3n2)cc1 [Compound 969],< 5 µM
8,"CC(C)N1CCC(Oc2cccc3cnc(Nc4ccc(CC(N)=O)cc4)nc23)CC1 [Compound 970, 2-(4-(8-(1-isopropylpiperidin-4-yloxy)quinazolin-2-ylamino)phenyl)acetamide]",< 5 µM
9,"Fc1ccc(Nc2ncc3ccc(OC4CCNCC4)cc3n2)cc1 [Compound 988, N-(4-fluorophenyl)-7-(piperidin-4-yloxy)quinazolin-2-amine]",< 5 µM
10,"CC(C)N1CCC(Oc2ccc3cnc(Nc4ccc(F)cc4)nc3c2)CC1 [Compound 989, N-(4-fluorophenyl)-7-(1-isopropylpiperidin-4-yloxy)quinazolin-2-amine]",5 to 10 µM
11,"CNS(=O)(=O)Cc1ccc(Nc2ncc3ccc(OC4CCN(C(C)C)CC4)cc3n2)cc1 [Compound 990, 1-(4-(7-(1-isopropylpiperidin-4-yloxy)quinazolin-2-ylamino)phenyl)-N-methylmethanesulfonamide]",< 5 µM
12,"CC(C)N1CCC(Oc2cccc3cnc(Nc4ccc(NC(=O)N5CCCC5)cc4)nc23)CC1 [Compound 992, N-(4-(8-(1-isopropylpiperidin-4-yloxy)quinazolin-2-ylamino)phenyl)pyrrolidine-1-carboxamide]",< 5 µM
